In patent US7202242B2, “Substituted 1 and 2-naphthol Mannich bases” (Gruenenthal GmbH, priority 1999, dated 2007):

Test system: phenylquinone-induced writhing
Assay: Analgesia test in the phenylquinone-induced writhing test in mice
Assay type: in vivo
Details: male NMRI mice; 10 mg/kg intravenous, 10 minutes before phenylquinone i.p.; writhing counted 5–20 minutes after phenylquinone
Protocol: The in-depth investigation for analgesic activity was carried out in the phenylquinone-induced writhing in mice (modified by I. C. Hendershot, J. Forsaith, J. Pharmacol. Exp. Ther. 125, 237–240 (1959)). Male NMRI mice weighing 25–30 g were used for this. Groups of 10 animals per substance dose received 0.3 ml/mouse of a 0.02% aqueous solution of phenylquinone (phenylbenzoquinone, Sigma, Deisenhofen; preparation of the solution with the addition of 5% ethanol and storage in a water bath at 45° C.) administered intraperitoneally 10 minutes after intravenous administration of the test substances. The animals were placed individually in observation cages. The number of pain-induced stretching movements (so-called writhing reactions=straightening of the body with stretching of the hind extremities) were counted by means of a push-button counter for 5–20 minutes after the administration of phenylquinone. Animals which received only physiological saline solution were also run as a control.
The substances were tested in the standard dose of 10 mg/kg. The inhibition of the writhing reactions by a substance was calculated according to the following equation: […]
The in-depth investigation for analgesic activity was carried out in the phenylquinone-induced writhing in mice as described above.

COc1ccc(COc2c(C(c3ccccc3)N(C)C)ccc3ccccc23)cc1 (stereo not drawn) [Example 37, {[1-(4-Methoxy-benzyloxy)-naphthalen-2-yl]-phenylmethyl}-dimethylamine]
Inhibition of the writhing reaction in %: 40%

COc1ccc(C(=O)Oc2ccc3ccccc3c2C(c2ccccc2)N(C)C)cc1 (stereo not drawn) [Example 39, 4-Methoxybenzoic acid 1-(dimethylaminophenylmethyl)-naphthalen-2-yl ester]
Inhibition of the writhing reaction in %: 21%

CN(C)C(c1ccccc1)c1c(OC(=O)c2ccccc2Cl)ccc2ccccc12 (stereo not drawn) [Example 40, 2-Chlorobenzoic acid 1-(dimethylaminophenylmethyl)-naphthalen-2-yl ester]
Inhibition of the writhing reaction in %: 48%

COc1ccc(COc2ccc3ccccc3c2C(c2ccccc2)N(C)C)cc1 (stereo not drawn) [Example 38, {[2-(4-Methoxybenzyloxy)-naphthalen-1-yl]-phenylmethyl}-dimethylamine]
Inhibition of the writhing reaction in %: 81%

Oc1ccc2ccccc2c1C(c1ccccc1)N1CCCCC1 (stereo not drawn) [Example 42, 1-(Phenylpiperidin-1-yl-methyl)-naphthalen-2-ol]
Inhibition of the writhing reaction in %: 92%

Oc1ccc2ccccc2c1C(c1ccccc1)N1CCOCC1 (stereo not drawn) [Example 41, 1-(Morpholin-4-yl-phenylmethyl]-naphthalen-2-ol]
Inhibition of the writhing reaction in %: 30%
